Results published in patent US9981968B2, “Substituted pyrrolo[2,3-d]pyrimidines for the treatment of cancer and proliferative disorders” (Northwestern University, priority 2013, dated 2018).

These compounds were tested on MM.1S cells (assay: MTS CellTiter 96 cell proliferation assay, MM.1S). Conditions: 0.1-10 μM, MTS assay, FIG. 1, compared with 8-amino adenosine.
Format: cell-based, human
Description: Cell viability was assessed by MTS assay as follows.
The MTS CellTiter 96 assay is a colorimetric method to assess the number of viable cells based on the conversion of a tetrazolium compound (MTS) to a formazan product by the mitochondrial dehydrogenase enzyme of the cells. This assay is used to determine the number of viable cells remaining following a drug treatment in comparison to the number of viable cells that are only treated with the drug vehicle (control cells). The amount of formazan product in the control cells is normalized to 100% and the amount of formazan in the drug treated cells is expressed as a percentage of control. This is used to generate dose response curve and estimate the drug concentration that produced a 50% decrease in the number of viable cells.

Q: Which decreasing cell proliferation does the source give for `Cc1ncnc2c1c(C(F)(F)F)cn2CC1CCN(C(=O)OC(C)(C)C)CC1` [NUCC-0000482] here?
A: not effective in decreasing cell proliferation

Q: How did the decreasing cell proliferation turn out when `Cc1ncnc2c1c(C(F)(F)F)cn2CC1CCNCC1` [NUCC-0000501] was run?
A: not effective in decreasing cell proliferation

Same assay, conditions: Homo sapiens, MM1.S, MTS cell proliferation assay, read-out: Estimated IC50

Q: With `CS(=O)(=O)N1CCC(Cn2cc(C(F)(F)F)c3c(Br)ncnc32)CC1` [NUCC-0000598] as the compound, how does the IC50 read?
A: 2 µM

Q: How did the IC50 turn out when `O=C(N1CCC(Cn2cc(C(F)(F)F)c3c(Cl)ncnc32)CC1)C(F)(F)F` [NUCC-0000593] was run?
A: 5 µM

Q: Which IC50 does the source give for `CC(C)(C)OC(=O)N1CCC(Cn2ccc3c(Cl)nc(Cl)nc32)CC1` [NUCC-0000571] here?
A: 5 µM

Q: With `Cc1ncnc2c1cc(C)n2C1O[C@H](CO)[C@@H](O)[C@H]1O` (stereo partly shown) [NUCC-0000477] as the compound, how does the IC50 read?
A: 8 µM

Q: Which IC50 does the source give for `Cc1c(C)n(Cc2ccc(F)cc2)c2ncnc(Cl)c12` [NUCC-0000360] here?
A: 7 µM

Q: `OCCOCn1cc(C(F)(F)F)c2c(Cl)ncnc21` [NUCC-0050715] was tested. Which IC50 did it give?
A: 5 µM

Q: Which IC50 does the source give for `Nc1nc(Cl)c2c(C(F)(F)F)cn(CC3CCNCC3)c2n1` [NUCC-0000570] here?
A: 3 µM

Q: With `COc1cccc(Cn2c(C)c(C)c3c(Cl)ncnc32)c1` [NUCC-0000409] as the compound, how does the IC50 read?
A: 1.5 µM

Q: `Cc1c(C)n(Cc2ccc(F)cc2)c2ncnc(N)c12` [NUCC-0000375] was tested. Which IC50 did it give?
A: 10 µM

Q: For `COCCn1c(C)c(C)c2c(Cl)ncnc21` [NUCC-0000361], which IC50 is on record?
A: 10 µM

Q: With `Cc1cn(CC2CCN(S(C)(=O)=O)CC2)c2ncnc(Cl)c12` [NUCC-0054040] as the compound, how does the IC50 read?
A: 3 µM

Q: For `FC(F)(F)c1cn(Cc2ccncc2)c2ncnc(Cl)c12` [NUCC-0000327], which IC50 is on record?
A: 5 µM

Q: `CC(C)(C)OC(=O)N1CCC(Cn2cc(C(F)(F)F)c3c(Cl)ncnc32)CC1` [NUCC-0000357] was tested. Which IC50 did it give?
A: 1.5 µM

Q: Which IC50 does the source give for `CS(=O)(=O)N1CCC(Cn2c(C(F)(F)F)cc3c(Cl)ncnc32)CC1` [NUCC-0054151] here?
A: > 10 µM

Q: With `Cc1c(C)n(Cc2ccco2)c2ncnc(Cl)c12` [NUCC-0000363] as the compound, how does the IC50 read?
A: 10 µM

Q: With `FC(F)(F)c1cn(CCN2CCCC2)c2ncnc(Cl)c12` [NUCC-0000358] as the compound, how does the IC50 read?
A: 3 µM

Q: `FC(F)(F)c1cc2c(Cl)ncnc2n1CC1CCNCC1` [NUCC-0054150] was tested. Which IC50 did it give?
A: > 10 µM

Q: With `CS(=O)(=O)N1CCC(Cn2ccc3c(Cl)ncnc32)CC1` [NUCC-0000578] as the compound, how does the IC50 read?
A: 5 µM

Q: For `COc1ccc(Cn2cc(C(F)(F)F)c3c(Cl)ncnc32)cc1` [NUCC-0054038], which IC50 is on record?
A: 2 µM

Q: `Cc1c(C)n(CC2CCCCC2)c2ncnc(Cl)c12` [NUCC-0000359] was tested. Which IC50 did it give?
A: 10 µM

Q: How did the IC50 turn out when `FC(F)(F)c1cn(Cc2cccnc2)c2ncnc(Cl)c12` [NUCC-0000326] was run?
A: 3 µM

Q: How did the IC50 turn out when `Clc1ncnc2c1c1c(n2Cc2ccccc2)CCCC1` [NUCC-0000308] was run?
A: 10 µM

Q: For `CS(=O)(=O)N1CCC(Cn2ccc3c(Cl)nc(Cl)nc32)CC1` [NUCC-0000577], which IC50 is on record?
A: 5 µM

Q: With `FC(F)(F)c1cn(CC2CCNCC2)c2ncncc12` [NUCC-0000470] as the compound, how does the IC50 read?
A: 10 µM

Q: For `CC(=O)N1CCC(Cn2ccc3c(Cl)nc(Cl)nc32)CC1` [NUCC-0000595], which IC50 is on record?
A: 3 µM

Q: For `NC(=O)N1CCC(Cn2cc(C(F)(F)F)c3c(Cl)ncnc32)CC1` [NUCC-0000469], which IC50 is on record?
A: 10 µM

Q: With `Cc1c(C)n(Cc2ccccc2)c2ncnc(Cl)c12` [NUCC-0000280] as the compound, how does the IC50 read?
A: 5 µM

Q: How did the IC50 turn out when `Cc1c(C)n(Cc2ccccc2)c2ncnc(N)c12` [NUCC-0000362] was run?
A: 10 µM

Q: With `Cc1c(C)n(CCN2CCOCC2)c2ncnc(Cl)c12` [NUCC-0000413] as the compound, how does the IC50 read?
A: 5 µM

Q: With `Clc1nc(Cl)c2ccn(CC3CCNCC3)c2n1` [NUCC-0000575] as the compound, how does the IC50 read?
A: 3 µM

Q: Which IC50 does the source give for `CS(=O)(=O)N1CCC(Cn2cc(C(F)(F)F)c3c(Cl)nc(N)nc32)CC1` [NUCC-0000576] here?
A: 3 µM

Q: How did the IC50 turn out when `FC(F)(F)c1cn(CC2CCOCC2)c2ncnc(Cl)c12` [NUCC-0000329] was run?
A: 3 µM

Q: Which IC50 does the source give for `COc1cccc(Cn2cc(C(F)(F)F)c3c(Cl)ncnc32)c1` [NUCC-0054037] here?
A: 2 µM

Q: How did the IC50 turn out when `Cc1cn(CC2CCNCC2)c2ncnc(Cl)c12` [NUCC-0054039] was run?
A: 1 µM

Q: Which IC50 does the source give for `FC(F)(F)c1cn(Cc2ccccc2)c2ncnc(Cl)c12` [NUCC-0000315] here?
A: 3 µM

Q: Which IC50 does the source give for `Cc1cn(CC2CCN(C(=O)OC(C)(C)C)CC2)c2ncnc(Cl)c12` [NUCC-0054036] here?
A: 2 µM

Q: With `Fc1ccc(Cn2c3c(c4c(Cl)ncnc42)CCCC3)cc1` [NUCC-0000412] as the compound, how does the IC50 read?
A: 2.5 µM

Q: How did the IC50 turn out when `FC(F)(F)c1c[nH]c2ncnc(Cl)c12` [NUCC-0054043] was run?
A: 7 µM

Q: For `Fc1ccc(Cn2cc(C(F)(F)F)c3c(Cl)ncnc32)cc1` [NUCC-0000325], which IC50 is on record?
A: 5 µM

Same assay, conditions: MTS cell proliferation assay

Q: For `Cc1ncnc2c1c(C(F)(F)F)cn2CC1CCN(C(=O)OC(C)(C)C)CC1` [NUCC-0000482], which “Estimated IC50” value is on record?
A: In- active

Q: With `Cc1ncnc2c1c(C(F)(F)F)cn2CC1CCNCC1` [NUCC-0000501] as the compound, how does the “Estimated IC50” value read?
A: In- active

These compounds were tested on acute leukemia cell lines (THP-1, K562, Kasumi-1, and U937) (assay: Inhibition of viability of acute leukemia cell lines). Conditions: THP-1, K562, Kasumi-1, U937; FIGS. 11-14.
Format: cell-based, human
Description: Compounds 381, 383, 409 (as test compounds) and Compound 501 (as a negative control) were administered to a variety of acute leukemia cell lines (THP-1. K562, Kasumi-1, and U937) in order to test their ability to inhibit cell growth as compared to 8-amino adenosine (8NH2-Ado) and 8-chloro adenosine (8Cl-Ado) (as positive controls) as in the previous Examples.

Q: For `COc1cccc(Cn2c(C)c(C)c3c(Cl)ncnc32)c1` [NUCC-0000409], which cell viability is on record?
A: reduce cell viability significantly

These compounds were tested on U937 cell lines (assay: Immunoblot of PARP cleavage and cleaved caspase 3). Conditions: U937 cell lysates, FIG. 17.
Format: cell-based, human
Description: FIG. 17. Immunoblot of cell lysates from U937 cell lines treated with Compounds 381, 383, 409 (as test compounds) and Compound 501 (as a negative control) as compared to 8-amino adenosine (8NH2-Ado) and 8-chloro adenosine (8Cl-Ado) (as positive controls). The impact of the compounds on proteins associated with cell death was assessed via performing an immunoblot. (See FIG. 17). PARP cleavage indicated activation of the caspase cascade and cell death by induction of apoptosis. Similarly detection of cleaved caspase 3 indicated activation of caspase activity and cell death by apoptosis. GAPDH was included as a loading control to indicate approximately equal loading of protein.

Q: How did the “induction of apoptosis (PARP cleavage, cleaved caspase 3)” value turn out when `Nc1ncnc2c1nc(Cl)n2[C@@H]1O[C@H](CO)[C@@H](O)[C@H]1O` [Compound 8-Cl-Ado, 8-chloro adenosine] was run?
A: Induction of apoptosis was observed

Q: Which “induction of apoptosis (PARP cleavage, cleaved caspase 3)” value does the source give for `Nc1ncnc2c1nc(N)n2[C@@H]1O[C@H](CO)[C@@H](O)[C@H]1O` [Compound 8-NH2-Ado, 8-amino adenosine] here?
A: Induction of apoptosis was observed
